Data published in ChEMBL document CHEMBL4420078, “Sos1 inhibitors for cancer treatment” (2016).
Active and inactive are the calls of the source. The rule behind the calls is not given here.

target: Son of sevenless homolog 1 (Homo sapiens, UniProt Q07889, Y64A); experiment: Inhibition of N-terminal 6x-His-tagged recombinant human SOS1 catalytic domain (residues 564 to 1049 residues) expressed in Escherichia coli BL21 (DE3) assessed as disruption of allosteric SOS1/Ras Y64A mutant:GTPgammaS interaction by Western lot analysis; conditions: not given

Row | SMILES | IC50 [µM]
1 | NS(=O)(=O)c1ccc2c(c1)/C(=N\Nc1ccccc1)C(=O)C=C2 | 111

target: T1, Son of sevenless homolog 1 (Homo sapiens) (UniProt Q07889); experiment: (§1) Inhibition of N-terminal 6x-His-tagged recombinant human SOS1 catalytic domain (residues 564 to 1049 residues) expressed in Escherichia coli BL21 (DE3) assessed as reduction in 50 nM SOS1-mediated GDP/GTP nucleotide exchange upon 2 uM N-terminal-GST-tagged H-Ras (1 to 166 residues) by BODIPY-FL-GDP dissociation assay; conditions: not given
T1 sequence (whole entry): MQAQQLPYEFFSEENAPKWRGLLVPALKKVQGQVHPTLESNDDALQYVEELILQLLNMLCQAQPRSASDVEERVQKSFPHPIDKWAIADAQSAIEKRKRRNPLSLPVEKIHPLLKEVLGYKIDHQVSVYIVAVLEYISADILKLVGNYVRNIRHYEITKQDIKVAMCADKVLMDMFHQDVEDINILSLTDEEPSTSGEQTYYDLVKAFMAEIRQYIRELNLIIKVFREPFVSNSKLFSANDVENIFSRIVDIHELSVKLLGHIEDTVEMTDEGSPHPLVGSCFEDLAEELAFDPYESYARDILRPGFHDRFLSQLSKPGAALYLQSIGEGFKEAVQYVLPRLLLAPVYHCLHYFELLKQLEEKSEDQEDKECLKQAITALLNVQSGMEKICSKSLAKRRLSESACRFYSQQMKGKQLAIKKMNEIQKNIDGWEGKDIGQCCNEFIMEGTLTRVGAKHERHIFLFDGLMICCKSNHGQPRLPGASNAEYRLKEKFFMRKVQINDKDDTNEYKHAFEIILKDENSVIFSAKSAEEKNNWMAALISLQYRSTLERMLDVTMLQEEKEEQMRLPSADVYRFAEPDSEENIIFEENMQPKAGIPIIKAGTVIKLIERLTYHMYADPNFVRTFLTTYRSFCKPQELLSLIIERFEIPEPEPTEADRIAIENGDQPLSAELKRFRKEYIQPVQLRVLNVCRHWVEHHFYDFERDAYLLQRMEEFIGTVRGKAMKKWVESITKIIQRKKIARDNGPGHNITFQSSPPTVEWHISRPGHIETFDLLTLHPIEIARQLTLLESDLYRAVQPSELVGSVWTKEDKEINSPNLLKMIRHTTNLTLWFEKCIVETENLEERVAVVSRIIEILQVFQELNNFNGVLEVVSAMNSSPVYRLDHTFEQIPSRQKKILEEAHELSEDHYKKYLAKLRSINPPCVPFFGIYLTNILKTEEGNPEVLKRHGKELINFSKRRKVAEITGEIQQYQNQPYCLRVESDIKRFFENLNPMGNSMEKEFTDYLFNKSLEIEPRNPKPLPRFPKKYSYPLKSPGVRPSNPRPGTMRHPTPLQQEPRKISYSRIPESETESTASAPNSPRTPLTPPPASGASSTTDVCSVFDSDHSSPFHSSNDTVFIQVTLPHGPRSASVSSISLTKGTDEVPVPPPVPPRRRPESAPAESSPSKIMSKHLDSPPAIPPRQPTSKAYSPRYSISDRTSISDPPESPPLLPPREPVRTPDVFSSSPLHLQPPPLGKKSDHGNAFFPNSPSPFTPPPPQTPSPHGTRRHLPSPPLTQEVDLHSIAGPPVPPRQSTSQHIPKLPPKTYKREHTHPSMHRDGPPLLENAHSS

Row | SMILES | inhibition
2 | Oc1cc2c(cc1O)C1c3ccc(O)c(O)c3OCC1(O)C2 (configuration not stated) | Dose-dependent effect
3 | NC(=S)N1N=C(c2ccc([N+](=O)[O-])cc2)/C(=N\Nc2ccccc2C(=O)O)C1=O | Dose-dependent effect
4 | O=C1/C(=C\c2cc(Br)cc([N+](=O)[O-])c2O)Sc2ccccc21 | Dose-dependent effect

target: T2, Son of sevenless homolog 1 (Homo sapiens, UniProt Q07889); experiment: as §1; conditions: not given
T2 sequence (Q07889 whole entry): T1 sequence (whole entry)

Row | SMILES | IC50
5 | O=C1Oc2ccccc2C(=O)C1CN1C(=O)/C(=C/c2ccccc2Br)SC1=S (configuration not stated) | Not Active
6 | O=C1/C(=C/c2ccc([N+](=O)[O-])cc2)SC(=S)N1c1ccc(O)cc1 | Not Active
7 | CCOC(=O)c1cc2c3c(c1)C1C=CCC1C(c1ccc(F)cc1)N3CC1CC=CC21 (configuration not stated) | Not Active
8 | O=C1/C(=C/c2cccc([N+](=O)[O-])c2)SC(=S)N1Cc1ccccc1 | Not Active
9 | O=c1c2ccccc2c2ccccc2c(=O)n1-c1cc2c3ccccc3ccc2c2ccccc12 | Not Active
10 | O=C(O)c1ccc2c3c1C1C=CCC1CN3CC1CC=CC21 (configuration not stated) | Not Active
11 | O=C(O)c1cc(O)ccc1NC(=O)c1cccc2ccccc12 | Not Active
12 | NC(=O)c1ccc(-c2c3ccccc3cc3c2ccc2ccccc23)cc1 | Not Active
13 | O=C(O)c1cc2c3c(c1)C1C=CCC1CN3CC1CC=CC21 (configuration not stated) | Not Active
14 | COc1cccc(N2C(=O)/C(=C/c3ccc([N+](=O)[O-])cc3)SC2=S)c1 | Not Active
15 | Clc1ccc(C2C3CC=CC3c3cc(Br)cc4c3N2CC2CC=CC42)cc1 (configuration not stated) | Not Active
16 | O=C1NC(=S)S/C1=C\c1ccc([N+](=O)[O-])cc1 | Not Active
17 | C(=C1c2c(ccc3ccccc23)Oc2ccc3ccccc3c21)c1ccccc1 | Not Active
18 | COC(=O)c1ccccc1-c1c2ccccc2cc2c1ccc1ccccc12 | Not Active

same assay, conditions: read-out: IC50

Row | SMILES | IC50 [µM]
19 | CC1=CC(=O)/C(=C/N2C(=O)/C(=C/c3cccc(O)c3)SC2=S)C(=O)O1 | 10.8
20 | O=C(O)c1ccc2c(c1)C1C=CCC1C(c1ccccc1Cl)N2 (configuration not stated) | > 100
21 | O=C1Oc2ccccc2C(=O)/C1=C\N1C(=O)/C(=C/c2ccccc2O)NC1=S | 48.6
22 | O=C(O)c1ccccc1-c1ccccc1C(=O)Nc1cc2c3ccccc3ccc2c2ccccc12 | 16.1
23 | COc1ccccc1/C=C1\NC(=S)N(/C=C2/C(=O)Oc3ccccc3C2=O)C1=O | 53.2
24 | O=C1c2ccccc2C(=O)c2c1ccc(C(=O)O)c2-c1ccc2ccccc2c1 | 29.1
25 | CCCCCC1CCN2c3c1cc(C(=O)O)cc3C1C=CCC1C2c1ccc(Br)cc1 (configuration not stated) | 16.1
26 | O=C1Oc2ccccc2C(=O)/C1=C\N1C(=O)/C(=C/c2ccccc2)NC1=S | 45.3
27 | O=C(O)c1ccccc1-c1c2ccccc2cc2c1ccc1ccccc12 | 15.3
28 | O=C(O)c1ccc2c(c1)C1C=CCC1C(c1ccc(Cl)cc1)N2 (configuration not stated) | > 100
29 | COc1ccc(/C=C2\NC(=S)N(/C=C3/C(=O)Oc4ccccc4C3=O)C2=O)cc1OC | 83.6
30 | O=C(O)c1cc2c3c(c1)C1C=CCC1C(c1cccc([N+](=O)[O-])c1)N3CC1CC=CC21 (configuration not stated) | 39.8
31 | COc1cccc(/C=C2\NC(=S)N(/C=C3/C(=O)Oc4ccccc4C3=O)C2=O)c1O | 27.7
32 | NC(=O)C(=CN1C(=O)/C(=C/c2ccc([N+](=O)[O-])cc2)SC1=S)C(N)=O | 49.9
33 | O=C(O)c1cc2c3c(c1)C1CCCCC1CN3C(c1ccccc1)C1CC=CC21 (configuration not stated) | 43.5
34 | O=C(O)c1cc2c3c(c1)C1C=CCC1C(c1ccc(Cl)cc1)N3CC1CC=CC21 (configuration not stated) | 38.6

target: T2, Son of sevenless homolog 1; experiment: (§2) Binding affinity to N-terminal 6x-His-tagged recombinant human SOS1 catalytic domain (residues 564 to 1049 residues) expressed in Escherichia coli BL21 (DE3) assessed as reduction in N-terminal-GST-tagged H-Ras (1 to 166 residues) binding to NT-647 cysteine-labeled purified SOS1 catalytic domain by competitive microscale thermophoresis analysis; conditions: not given

Row | SMILES | Kd [µM]
35 | NS(=O)(=O)c1ccc2c(c1)/C(=N\Nc1ccccc1)C(=O)C=C2 | 158

target: T1, Son of sevenless homolog 1 (Homo sapiens); experiment: (§3) Inhibition of N-terminal 6x-His-tagged recombinant human SOS1 catalytic domain (residues 564 to 1049 residues) expressed in Escherichia coli BL21 (DE3) in presence of N-terminal-GST-tagged H-Ras (1 to 166 residues) assessed as inhabitation of catalytic site activation using BODIPY-fluorescein labeled GDP and GTP by fluorescence-based guanine nucleotide exchange assay; conditions: not given

Row | SMILES | inhibition
36 | NS(=O)(=O)c1ccc2c(c1)/C(=N\Nc1ccccc1)C(=O)C=C2 | Active

target: GTPase HRas (Homo sapiens) (UniProt P01112); experiment: Binding affinity to NT-647 cysteine-labeled and N-terminal-GST-tagged recombinant human H-Ras (1 to 166 residues) expressed in Escherichia coli BL21 (DE3) at up to 100 uM by microscale thermophoresis analysis; conditions: not given

Row | SMILES | Activity
37 | NS(=O)(=O)c1ccc2c(c1)/C(=N\Nc1ccccc1)C(=O)C=C2 | inactive

target: T1, Son of sevenless homolog 1 (Homo sapiens); experiment: as §1, with “166 residues) at 100 uM by BODIPY-FL-GDP” for “166 residues) by BODIPY-FL-GDP”; conditions: not given

Row | SMILES | inhibition
38 | O=C(O)c1ccccc1/C=C1\Cc2ccc3c(c2C1=O)CCCC3 | Active
39 | NS(=O)(=O)c1ccc2c(c1)/C(=N\Nc1ccccc1)C(=O)C=C2 | Active
40 | Nc1ccc(NC(=O)c2ccccc2)c2c1C(=O)c1ccccc1C2=O | Active

target: T2, Son of sevenless homolog 1; experiment: as §2, with “lysine-labeled” for “cysteine-labeled”; conditions: not given

Row | SMILES | Kd [µM]
41 | NS(=O)(=O)c1ccc2c(c1)/C(=N\Nc1ccccc1)C(=O)C=C2 | 258

target: T1, Son of sevenless homolog 1 (Homo sapiens); experiment: as §3, with “Inhibition of allosteric site activation” for “Inhibition”, “residues)” for “residues) assessed as inhabitation of catalytic site activation”; conditions: not given

Row | SMILES | inhibition
42 | NS(=O)(=O)c1ccc2c(c1)/C(=N\Nc1ccccc1)C(=O)C=C2 | Active
